This note sets out measurements from PubChem BioAssay (NCI).

Each structure is given as a SMILES string.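 Interpolation was linear, between the two tested concentrations surrounding the appropriate level; five concentrations were tested over 48 hours in 96-well plates. Abbreviation: GI50, concentration required for 50% inhibition of growth. TGI: total growth inhibition.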

What all share (assay): NCI tumour cell line growth inhibition, 48 h
Assay [1] relates to TK-10 renal.
Assay [2] deals with A498 renal.
Assay [3] relates to MDA-MB-435.
Assay [4] deals with SF-539 CNS.
In assay [5] the test system is NCI-H226 lung.
Assay [6] concerns MDA-MB-231 breast.
Assay [7] relates to SNB-75 CNS.
Assay [8] concerns HS 578T breast.
The subject of assay [9] is DU-145 prostate.
Assay [10] has as its system HCC-2998 colon.

For the compound `CN(C)CC1CCn2c(c(C3=C(c4cn(C)c5ccccc45)C(=O)NC3=O)c3ccccc32)C1` (stereo not given), the GI50 is 3.03 µM in assay [1]; 4.47 µM in assay [2]; 3.7 µM in assay [3]; 3.87 µM in assay [4]; 4.01 µM in [5]; 3.42 µM in [6]. For the same compound, the GI50 was 0.772 µM in assay [7], 2.31 µM in assay [8], 4.91 µM in [9] and 4.65 µM in assay [10]. Besides, the TGI was 7.27 µM in assay [1]; 9.22 µM in [2]; 7.49 µM in assay [3]; 7.49 µM in assay [4]; 9.38 µM in assay [5]; 7.56 µM in assay [6]. In addition, the TGI amounted to 5.28 µM in assay [7], 7.36 µM in assay [8], 10.9 µM in [9] and 8.93 µM in assay [10].

As for `COc1cccc2c1c1nc3cc(C)c(C)cc3nc1n2CCN(C)C`, the GI50 in assay [1] is 2.95 µM; in assay [2], 0.533 µM; in [3], 1.83 µM; in [4], 1.92 µM; in assay [5] it was 1.63 µM; in assay [6] it was 1.87 µM. In addition, the GI50 in assay [7] was 1.1 µM; in assay [8], 1.8 µM; in assay [9] it was 3.01 µM; in [10] it was 1.42 µM. For the same compound, the TGI in [1] worked out at 11.5 µM; in [2], 1.9 µM; in assay [3], 4.14 µM; in assay [4] it was 5.48 µM; in assay [5] it was 6.45 µM; in assay [6], 9.52 µM. The TGI in assay [7] stood at 5.56 µM; in assay [8], 6.99 µM; in [9], 12.1 µM; in assay [10], 3.65 µM.

Take `Cc1ccc(C(=O)NC2CCCCC2)cc1-c1ccc(C(=O)NCC2CC2)cc1`: the GI50 in [1] was greater than 25 µM; in assay [2], 8.51 µM; in assay [3], greater than 25 µM; in [4], greater than 25 µM; in assay [5] it was greater than 25 µM; in assay [6] it was greater than 25 µM. The GI50 was greater than 25 µM in assay [7], greater than 20.2 µM in [8], greater than 25 µM in [9] and greater than 25 µM in assay [10]. For the same compound, the TGI in [1], in [2], in assay [3], in [4], in assay [5] and in [6] was greater than 25 µM throughout. Besides, the TGI in assay [7], in assay [8], in assay [9] and in assay [10] was greater than 25 µM throughout.

On to `CO[C@H](C(=O)N[C@@H](CCCCNC(=O)OCc1ccccc1)C(=O)OC(C)(C)C)[C@@H]1Cc2cc3cc(OC4CC(OC5CC(O)C(O)C(C)O5)C(O)C(C)O4)c(C)c(O)c3c(O)c2C(=O)[C@H]1OC1CC(OC2CC(OC3CC(C)(O)C(O)C(C)O3)C(O)C(C)O2)C(O)C(C)O1` (stereo not given in full), for which the GI50 in assay [1] is 1.15 µM; in assay [2] it was 0.64 µM; in assay [3] it was 0.805 µM; in assay [4], 0.559 µM; in assay [5], 0.673 µM; in assay [6], 0.939 µM. Also, the GI50 in assay [7] was 0.541 µM; in [8] it was 1.05 µM; in [9], 0.842 µM; in assay [10] it was 0.885 µM. Besides, the TGI was greater than 10 µM in [1]; 2.03 µM in [2]; 2.28 µM in assay [3]; 3.08 µM in assay [4]; 2.14 µM in [5]; 3.1 µM in assay [6]. The TGI in [7] is 1.97 µM; in [8] it was 5 µM; in [9], greater than 10 µM; in [10], 3.2 µM.

`CNC1C(O)CC(OC2C/C=C(\C)C/C(C)=C/C=C/CCC(C)CNC(=O)/C=C/C=C/C2C)OC1C` (stereo not given): the TGI amounted to 3.17 µM in assay [1]; 3.24 µM in assay [2]; 0.82 µM in [3]; 3.14 µM in assay [4]; 43.8 µM in assay [5]; 2.91 µM in assay [6]. For the same compound, the TGI in [7] was 2.91 µM; in assay [8], 1.85 µM; in [9] it was 2.79 µM; in assay [10], 1.42 µM.

`Cc1ccc(NC(=O)c2ccnc(N3CCCC3)c2)cc1-c1ccc(C(=O)NCC2CC2)cc1`: the GI50 in assay [1] was greater than 25 µM; in assay [2], greater than 25 µM; in assay [3] it was greater than 25 µM; in [4], greater than 25 µM; in assay [5], greater than 25 µM; in assay [6] it was 10 µM. The GI50 in assay [7] was greater than 21.7 µM; in [8], greater than 25 µM; in assay [9] it was greater than 25 µM; in [10] it was greater than 25 µM. Moreover, the TGI in assay [1], in assay [2], in assay [3], in assay [4], in [5] and in assay [6] was greater than 25 µM throughout. For the same compound, the TGI in assay [7], in assay [8], in assay [9] and in [10] was greater than 25 µM each time.
